The values below come from patent US20240417408A1, “SMALL MOLECULE INHIBITORS OF KRAS G12C MUTANT” (MERCK SHARP & DOHME CORP., priority 2021, published 2024).

Experiment [1] deals with T1, Recombinant KRAS G12C mutant protein (amino acids 1-169, SEQ ID NO: 1) (Homo sapiens, UniProt P01116, G12C).
T1 construct: His6 (N); TEV protease site (ENLYFQG; named from own knowledge) (N); made in house; host or cells: E. coli
The experiment is described as follows: Test Example 1: inhibitory activity on KRAS G12C nucleotide (GDP-GTP) exchange reaction in vitro. The experiment is classed as biochemical. Particulars: BODIPY FL GDP-bound KRAS G12C incubated with compound at 25° C. for 1 hour, then SOS1 and GMPPNP, read-out: GNE IC50. The method, then:
Test Example 1: Evaluation of inhibitory activity of compounds on KRAS G12C nucleotide (GDP-GTP) exchange reaction in vitro
Recombinant KRAS G12C mutant protein (amino acids 1-169, SEQ ID NO: 1) and cleaved recombinant SOS1 (amino acids 564-1049, SEQ ID NO:2) proteins were expressed in E. coli and purified by affinity chromatography.
To prepare BODIPY FL GDP-bound KRAS G12C protein, 50 μM KRAS G12C protein was incubated with 0.5 mM BODIPY FL GDP in a loading buffer (20 mM Tris-HCl (pH 7.5), 50 mM NaCl, 1 mM DTT and 2.5 mM EDTA) for 1 hour on ice. After the incubation, MgCl2 was added to a final concentration of 10 mM, followed by incubation at room temperature for 30 minutes. The mixture was allowed to pass through a NAP-5 column to remove free nucleotides and purified BODIPY FL GDP-bound KRAS G12C protein was used for compound evaluation.
For the measurement of the inhibitory activity of compounds on GDP-GTP exchange rate of recombinant KRAS G12C, BODIPY FL GDP-bound KRAS G12C protein was incubated with various concentrations of compound in a reaction buffer (20 mM Tris-HCl (pH 7.5), 100 mM NaCl, 1 mM MgCl2, 2 mM DTT, 0.1% Tween 20) at 25° C. for 1 hour. After the incubation, recombinant SOS1 and Guanosine-5′-[(β,γ)-imido]triphosphate, Tetralithium salt (GMPPNP) (Jena Bioscience GmbH) were added and incubated at room temperature for 30 minutes to proceed SOS1-dependent GDP-GTP exchange reaction on KRAS G12C. Replacement of BODIPY FL GDP by GMPPNP was measured by calculating the ratio of fluorescence intensities of BODIPY FL before and after the exchange reaction. Inhibition % was calculated by setting the fluorescence ratio from the reaction without test compound (DMSO control) and the fluorescence ratio from the reaction without SOS1 and GMPPNP as 0% and 100% inhibition, respectively. IC50 values were calculated from dose titration curve using curve fitting by XLfit software (IDBS).

The target in experiment [2] is T2, interaction between KRAS G12C and cRAF-RBD (Homo sapiens, UniProt P01116, G12C).
T2 construct: TEV protease site (ENLYFQG); made in house; host or cells: E. coli
The experiment is described as follows: Test Example 2: inhibitory activity on interaction between KRAS G12C and cRAF (Alpha technology). The format is binding. The following applies: GMPPNP-bound KRAS G12C incubated with compound at 25° C. for 1 hour, then cRAF-RBD. The method, then: Test Example 2: Evaluation of Inhibitory Activity of Compounds on Interaction Between KRAS G12C and cRAF (In Vitro)
Interaction between recombinant KRAS G12C mutant protein (SEQ ID NO: 1) and cRAF RAS-binding domain (cRAF-RBD, amino acids 50-132, Jena Biosciences GmbH) was measured using Alpha technology (PerkinElmer Inc.).
Recombinant KRAS G12C protein with an N-terminal His-tag was expressed in E. coli and purified by affinity chromatography. To prepare GTP-bound form and GDP-bound form of KRAS G12C protein, 50 μM KRAS G12C protein was incubated with 1 mM GMPPNP (Jena Bioscience GmbH) and 1 mM GDP, respectively, in a loading buffer (20 mM Tris-HCl (pH 7.5), 50 mM NaCl, 1 mM DTT and 2.5 mM EDTA) for 1 hour on ice. After the incubation, MgCl2 was added to a final concentration of 10 mM, followed by incubation at room temperature for 30 minutes. The mixture was allowed to pass through a NAP-5 column to remove free nucleotides and purified, and the resultant nucleotide-bound KRAS G12C protein was used for compound evaluation.
For the measurement of the inhibitory activity of compounds on interaction between KRAS G12C and cRAF-RBD, GMPPNP-bound KRAS G12C protein was incubated with various concentrations of compound in a reaction buffer (20 mM Tris-HCl (pH 7.5), 100 mM NaCl, 1 mM MgCl2, 1 mM TCEP, 0.1% Tween 20) at 25° C. for 1 hour. After the incubation, recombinant cRAF-RBD and Alpha detection reagents were added and incubated at room temperature for 1.5 hours for binding. Interaction of KRAS G12C and cRAF-RBD was monitored by measuring Alpha signal. Inhibition % was calculated using the signal from the reaction without test compound (DMSO control) as 0% inhibition and the signal from the reaction using GDP-bound KRAS G12C in place of GMPPNP-bound KRAS G12C as 100% inhibition. IC50 values were calculated from dose titration curve using curve fitting by XLfit software (IDBS).

For another experiment, the system named is MIA PaCa-2 cells. The experiment is described as follows: Test Example 3: growth inhibition activity on KRAS-G12C mutant cell line (MIA PaCa-2). Particulars: Homo sapiens, 72 h, MIA PaCa-2, 3-day culture, CellTiter-Glo 3D, read-out: CTX MiaPaCa IC50. The experiment is classed as cell-based. Here is the method:
Test Example 3: Assay of Growth Inhibition Activity on KRAS-G12C Mutant Cell Line (MIA PaCa-2) (In Vitro)
MIA PaCa-2 cells (provided by Sumitomo Dainippon Pharma Co., Ltd.), which are a KRAS-G12C mutant human pancreas cancer cell line, were suspended in a 10% fetal bovine serum-containing RPMI1640 medium (manufactured by Fujifilm Wako Pure Chemical Corporation.). The cell suspension was seeded into each well of a 384-well U bottom microplate and cultured in an incubator containing 5% CO2 gas at 37° C. for 1 day. The compounds obtained in the Examples section were used as test compounds and were dissolved in DMSO, respectively, and each test compound was diluted with DMSO to give a concentration 500 times the final concentration. The resultant solution of the test compound in DMSO was diluted with the medium used for suspending cells and added to each well of the cell-culture plate to give a DMSO final concentration of 0.2%, followed by culture in an incubator containing 5% CO2 gas at 37° C. for another 3 days. The cell count after 3-day culture in the presence of the test compound was measured using CellTiter-Glo 3D Reagent (manufactured by Promega Corporation). To all cells were added with CellTiter-Glo 3D Reagent and mixed for 10 minutes. 30 minutes after mixing, luminescence was measured by a plate reader. The growth inhibition rate was calculated from the following equation, and the concentration of the test compound at which 50% inhibition was achieved (IC50 (nM)) was determined.
[formula] • T: the emission intensity in a well into which a test compound was added. • C: the emission intensity in a well into which a test compound was not added.

T2 sequence (P01116 with tags, fused parts or gaps isoform P01116-2 G12C): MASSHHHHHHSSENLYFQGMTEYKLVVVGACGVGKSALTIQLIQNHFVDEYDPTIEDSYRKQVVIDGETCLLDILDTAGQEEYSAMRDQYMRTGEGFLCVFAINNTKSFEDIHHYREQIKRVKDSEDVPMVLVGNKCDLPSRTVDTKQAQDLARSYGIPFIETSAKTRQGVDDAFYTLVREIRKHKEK
T1 sequence (P01116 with tags, fused parts or gaps isoform P01116-2 G12C): as above

Regarding `C#Cc1cccc2cc(O)cc([C@@H]3Cc4nc(OCC5(CN6CCOCC6)CC5)nc(N5CCN(C(=O)/C=C/CN6CCC(OC)CC6)[C@@H](CC#N)C5)c4CO3)c12` [Example 1, 2-((S)-4-((S)-7-(8-ethynyl-3-hydroxynaphthalen-1-yl)-2-((1-(morpholinomethyl)cyclopropyl)methoxy)-7,8-dihydro-5H-pyrano[4,3-d]pyrimidin-4-yl)-1-((E)-4-(4-methoxypiperidin-1-yl)but-2-enoyl)piperazin-2-yl)acetonitrile], the values for the IC50 (in experiment [1]; in experiment [2]; in the experiment on MIA PaCa-2 cells) were 0.00102 µM, 0.0254 µM and 0.00715 µM, respectively.

As to `CO[C@H]1CC[C@H](NC/C=C/C(=O)N2CCN(c3nc(OC[C@@H]4CCCN4C)nc4c3COC(c3cccc5ccccc35)C4)C[C@@H]2CC#N)CC1` (stereo partly drawn) [Example 2, 2-((2S)-1-((E)-4-(((1r,4S)-4-methoxycyclohexyl)amino)-but-2-enoyl)-4-(2-(((S)-1-methylpyrrolidin-2-yl)meth-oxy)-7-(naphthalen-1-yl)-7,8-dihydro-5H-pyrano[4,3-d]pyrimidin-4-yl)piperazin-2-yl)acetonitrile], the half-maximal inhibitory concentration (IC50) in experiment [1] was 0.00353 µM; in experiment [2], 43.7 µM; in the experiment with MIA PaCa-2 cells it was 0.111 µM.

Consider `CN1CCC[C@H]1COc1nc2c(c(N3CCN(C(=O)/C=C/CNC4CC5CCC(C4)O5)[C@@H](CC#N)C3)n1)COC(c1cccc3ccccc13)C2` (stereo partly drawn) [Example 3, 2-((2S)-1-((E)-4-((8-oxa-bicyclo[3.2.1]octan-3-yl)-amino)but-2-enoyl)-4-(2-(((S)-1-methylpyrrolidin-2-yl)methoxy)-7-(naphthalen-1-yl)-7,8-dihydro-5H-pyrano[4,3-d]pyrimidin-4-yl)piperazin-2-yl)acetonitrile], for which the IC50 in experiment [1] worked out at 0.00522 µM; in experiment [2] it was 11.5 µM; with MIA PaCa-2 cells, 0.1 µM.

Turning to `COC1CCN(C/C=C/C(=O)N2CCN(c3nc(OC[C@@H]4CCCN4C)nc4c3COC(c3cccc5ccccc35)C4)C[C@@H]2CC#N)CC1` (stereo partly drawn) [Example 4, 2-((2S)-1-((E)-4-(4-methoxy-piperidin-1-yl)but-2-enoyl)-4-(2-(((S)-1-methylpyrroli-din-2-yl)methoxy)-7-(naph-thalen-1-yl)-7,8-dihydro-5H-pyrano[4,3-d]pyrimidin-4-yl)piperazin-2-yl)acetonitrile], the IC50 in experiment [1] was 0.00719 µM; in experiment [2] it was 9.58 µM; in the experiment on MIA PaCa-2 cells, 0.333 µM.

Consider `COC1CCN(C/C=C/C(=O)N2CCN(c3nc(OC[C@@H]4CCCN4C)nc4c3COC(c3cccc5cccc(Br)c35)C4)C[C@@H]2CC#N)CC1` (stereo partly drawn) [Example 5, 2-((2S)-4-(7-(8-bromonaph-thalen-1-yl)-2-(((S)-1-meth-ylpyrrolidin-2-yl)methoxy)-7,8-dihydro-5H-pyrano[4,3-d]pyrimidin-4-yl)-1-((E)-4-(4-methoxypiperidin-1-yl)-but-2-enoyl)piperazin-2-yl)-acetonitrile], for which the figures for the concentration for half-maximal inhibition (IC50) (in experiment [1]; in experiment [2]; in the experiment on MIA PaCa-2 cells) were 0.00263 µM, 2.82 µM and 0.177 µM, respectively.

For `C#Cc1cccc2cccc(C3Cc4nc(OCC5(CN6CCOCC6)CC5)nc(N5CCN(C(=O)/C=C/CN6CCC(OC)CC6)[C@@H](CC#N)C5)c4CO3)c12` (stereo partly drawn) [Example 6, 2-((2S)-4-(7-(8-ethynylnaph-thalen-1-yl)-2-((1-(morpho-linomethyl)cyclopropyl)-methoxy)-7,8-dihydro-5H-pyrano[4,3-d]pyrimidin-4-yl)-1-((E)-4-(4-methoxy-piperidin-1-yl)but-2-enoyl)-piperazin-2-yl)acetonitrile], the IC50 turned out to be 0.0154 µM in experiment [1], 1.26 µM in experiment [2] and 0.268 µM in the experiment with MIA PaCa-2 cells.

As to `C#Cc1cccc2cc(O)cc([C@@H]3Cc4nc(OC[C@@H]5CCCN5C)nc(N5CCN(C(=O)/C=C/CN6CCC(OC)CC6)[C@@H](CC#N)C5)c4CO3)c12` [Example 7, 2-((S)-4-((S)-7-(8-ethynyl-3-hydroxynaphthalen-1-yl)-2-(((S)-1-methylpyrrolidin-2-yl)methoxy)-7,8-dihydro-5H-pyrano[4,3-d]pyrimidin-4-yl)-1-((E)-4-(4-methoxy-piperidin-1-yl)but-2-enoyl)-piperazin-2-yl)acetonitrile], the IC50 in experiment [1] was determined as 0.00088 µM; in experiment [2] it was 0.0506 µM; with MIA PaCa-2 cells, 0.00436 µM.

Turning to `C#Cc1cccc2cc(O)cc([C@@H]3Cc4nc(OC[C@@H]5CCCN5C)nc(N5CCN(C(=O)/C=C/CN[C@H]6CC[C@H](OC)CC6)[C@@H](CC#N)C5)c4CO3)c12` [Example 8, 2-((S)-4-((S)-7-(8-ethynyl-3-hydroxynaphthalen-1-yl)-2-(((S)-1-methylpyrrolidin-2-yl)methoxy)-7,8-dihydro-5H-pyrano[4,3-d]pyrimidin-4-yl)-1-((E)-4-(((1r,4S)-4-methoxycyclohexyl)amino)-but-2-enoyl)piperazin-2-yl)-acetonitrile], the concentration for half-maximal inhibition (IC50) stood at 0.00054 µM in experiment [1], 0.0644 µM in experiment [2] and 0.0064 µM in the experiment with MIA PaCa-2 cells.

`C#Cc1cccc2cc(O)cc(C3Cc4nc(OC[C@@H]5CCCN5C)nc(N5CCN(C(=O)/C=C/CN[C@H]6CC[C@H](OC)CC6)[C@@H](CC#N)C5)c4CO3)c12` (stereo partly drawn) [Example 9, 2-((2S)-4-(7-(8-ethynyl-3-hydroxynaphthalen-1-yl)-2-(((S)-1-methylpyrrolidin-2-yl)methoxy)-7,8-dihydro-5H-pyrano[4,3-d]pyrimidin-4-yl)-1-((E)-4-(((1r,4S)-4-methoxycyclohexyl)amino)-but-2-enoyl)piperazin-2-yl)-acetonitrile]: the IC50 in experiment [1] was 0.00127 µM; in experiment [2], 0.133 µM; with MIA PaCa-2 cells, 0.0404 µM.
